Assay results published in patent publication US8883963B2 (Cadila Healthcare Limited, priority 2007, dated 2014).

Tests used:
[1] = Stability in human plasma; assay type: in vitro ADME; settings: 2 μM peptidomimetic, pooled human plasma, 37° C.; for half-life at 2 μM: pH 7.8, read-out: half-life (t1/2) when incubated with human plasma
Experimental: (§1) Reactions were terminated by the addition of TFA/H2O (15 mL, 10% (v/v)). […] The column was equilibrated with TFA/H20, at a flow rate of 1 mL/min.

[2] = Stability in simulated gastric fluid; assay type: in vitro ADME; settings: 2 μM peptidomimetic, simulated gastric fluid pH 1.5, 37° C.; for half-life at 2 μM: read-out: half-life (t1/2) when incubated with simulated gastric fluid
Experimental: as §1

DPP IV = DPP IV (Homo sapiens, UniProt P27487); assay: Stability against DPP IV enzyme; assay type: in vitro ADME; settings: 37° C.; for % degradation of peptidomimetics in 24 h when incubated with DPP-IV enzyme: 2 μM peptidomimetic; for half-life at 2 μM: DPP IV enzyme, pH 7.8, 2 μM peptidomimetic, read-out: half-life (t1/2) when incubated with DPP-IV enzyme
DPP IV, sequence (P27487 whole entry, species assumed): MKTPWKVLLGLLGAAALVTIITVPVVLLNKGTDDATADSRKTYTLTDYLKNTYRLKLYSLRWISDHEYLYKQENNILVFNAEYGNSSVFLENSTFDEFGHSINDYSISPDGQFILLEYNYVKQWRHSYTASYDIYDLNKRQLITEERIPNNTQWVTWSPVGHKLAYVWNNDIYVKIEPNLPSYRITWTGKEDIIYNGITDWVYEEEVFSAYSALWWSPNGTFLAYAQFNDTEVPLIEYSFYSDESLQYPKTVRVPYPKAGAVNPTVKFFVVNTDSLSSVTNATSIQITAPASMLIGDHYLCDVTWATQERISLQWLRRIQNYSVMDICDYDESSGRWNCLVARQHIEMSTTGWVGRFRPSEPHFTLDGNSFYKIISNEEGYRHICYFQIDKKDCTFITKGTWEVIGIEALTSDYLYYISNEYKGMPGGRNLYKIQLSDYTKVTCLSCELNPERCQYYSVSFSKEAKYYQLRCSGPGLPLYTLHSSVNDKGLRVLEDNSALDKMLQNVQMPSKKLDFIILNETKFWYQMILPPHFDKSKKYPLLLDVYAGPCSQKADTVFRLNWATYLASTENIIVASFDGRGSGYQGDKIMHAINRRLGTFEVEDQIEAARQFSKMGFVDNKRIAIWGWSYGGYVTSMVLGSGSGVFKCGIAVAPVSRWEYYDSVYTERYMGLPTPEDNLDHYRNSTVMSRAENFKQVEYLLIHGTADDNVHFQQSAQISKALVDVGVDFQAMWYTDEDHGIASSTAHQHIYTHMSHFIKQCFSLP
Experimental: as §1

[3] = Stability in simulated intestinal fluid; assay type: in vitro ADME; settings: 2 μM peptidomimetic, simulated intestinal fluid pH 7.5, 37° C.; for half-life at 2 μM: read-out: half-life (t1/2) when incubated with simulated intestinal fluid
Experimental: as §1

[4] = Stability in liver microsomes; assay type: in vitro ADME; settings: 2 μM peptidomimetic, human liver microsomes, 37° C.; for half-life at 2 μM: pH 7.8, read-out: half-life (t1/2) when incubated with liver microsomes
Experimental: as §1

Human GLP-1 receptor = biological target: T1, Human GLP-1 receptor (Homo sapiens, UniProt P43220); assay: In vitro Human GLP-1 R agonist activity (cyclic AMP determination) in CHO/human GLP1R cells; assay type: cell-based
T1 construct: The full-length cDNA was cloned in pcDNA3.1(+); expressed in transfected cells
T1 sequence (P43220 24-463): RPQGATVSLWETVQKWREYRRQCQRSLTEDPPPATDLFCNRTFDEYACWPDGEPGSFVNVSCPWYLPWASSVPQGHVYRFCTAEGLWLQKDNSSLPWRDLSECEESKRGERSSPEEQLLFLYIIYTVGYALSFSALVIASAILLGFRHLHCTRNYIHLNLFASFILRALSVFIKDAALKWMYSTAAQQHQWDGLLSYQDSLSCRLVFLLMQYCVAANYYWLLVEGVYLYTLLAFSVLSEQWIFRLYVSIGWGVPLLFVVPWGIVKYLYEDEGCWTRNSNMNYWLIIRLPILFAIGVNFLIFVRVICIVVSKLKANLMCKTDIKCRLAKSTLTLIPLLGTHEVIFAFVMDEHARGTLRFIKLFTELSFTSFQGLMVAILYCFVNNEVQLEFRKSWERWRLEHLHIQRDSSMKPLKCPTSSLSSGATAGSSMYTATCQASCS
Experimental: The novel peptidomimetics were screened for Human GLP-1 receptor (HGLP-1 R) agonist activity (in vitro), using the cAMP cell-based assay, in stably transfected CHO/human GLP1R cells. […] CHO cells were grown in Ham's F12 medium containing L-Glutamine (2 mM), HEPES (25 mM), NaHCO3 (1.1 g/L) and supplemented with NewBorn Calf Serum (NBCS; 10%), Penicillin (50 U/ml (v/v)) and Streptomycin (50 ug/ml (v/v)). Cells were split every 3 days 1:8.
The cDNA encoding the human GLP-1 receptor was isolated by RT-PCR according to standard protocol. The full-length cDNA was cloned in pcDNA3.1(+). […] Clones expressing the receptor were generated by G418 (800 μg/ml active, Sigma) selection. The stable clones were thereafter maintained at 500 ug/ml (G418). The selected clone was used between passages 9-25 for cAMP assays.
The trypsin was inactivated using Ham's F12 medium containing 10% NBCS and the cells were suspended in 2 ml of complete medium. […] The medium was aspirated off from the 12 well plate and the cells were washed once using Ham's F12 (plain). […] The cells were incubated with the test compounds for 30 min in humidified atmosphere and 37° C. After the incubation, the medium was removed and cells were washed once with plain Ham's F12. Subsequently, the cells were lysed by adding 500 ul of ice cold 0.1 N HCl to each well and shaking for 30 minutes at 200 rpm. The cells were then scrapped, the lysate was collected in micro centrifuge tubes and centrifuged at 12000 rpm for 10 min to remove the debris. 300 ul of supernatant from each micro-centrifuge tube was then removed into a glass tube and dried under N2 for 30 min, for cAMP estimation. The total cAMP was estimated from the sample according to the manufacturer's protocol using Cyclic AMP immunoassay kit (R&D systems, Minneapolis. MN). The remaining supernatant is used to determine the protein concentration using micro BCA (Sigma). Data is calculated as percent of control (Vehicle: water) and expressed as Mean±SD.

Compound | % degradation of peptidomimetics in 24 h when incubated with human plasma [1] | half-life at 2 μM [1] | % degradation of peptidomimetics in 24 h when incubated with simulated gastric fluid [2] | half-life at 2 μM [2] | % degradation of peptidomimetics in 24 h when incubated with DPP-IV enzyme (DPP IV) | half-life at 2 μM (DPP IV) | % degradation of peptidomimetics in 24 h when incubated with simulated intestinal fluid [3] | half-life at 2 μM [3] | % degradation of peptidomimetics in 24 h when incubated with liver microsomes [4] | half-life at 2 μM [4] | Human GLP-1 R activity (cAMP release), % activity with respect to control (Human GLP-1 receptor; 1 nM test compound) | Human GLP-1 R activity (cAMP release), % activity with respect to control (Human GLP-1 receptor; 10 nM test compound) | Human GLP-1 R activity (cAMP release), % activity with respect to control (Human GLP-1 receptor; 100 nM test compound) | Human GLP-1 R activity (cAMP release), % activity with respect to control (Human GLP-1 receptor; 1 μM test compound) | Human GLP-1 R activity (cAMP release), % activity with respect to control (Human GLP-1 receptor; 10 μM test compound) | half-life (t1/2) when incubated with liver microsomes [4] | half-life (t1/2) when incubated with simulated gastric fluid [2] | half-life (t1/2) when incubated with simulated intestinal fluid [3]
CCc1cc(OC)ccc1-c1ccc(CC(CNC(CCCc2ccccc2)C(N)=O)NC(=O)[C@H](CC(=O)O)NC(=O)[C@H](CO)NC(=O)[C@@H](NC(=O)C(C)(Cc2ccccc2F)NC(=O)[C@@H](NC(=O)CNC(=O)C(CCC#N)NC(=O)C(C)(C)NC(=O)[C@@H](N)Cc2c[nH]cn2)[C@H](C)O)[C@H](C)O)cc1 (single isomer, unassigned) [compound 190] | 00% | > 24 h | 45% | 4 h | 00% | > 24 h | 00% | > 24 h | 85% | 2 h | 41 ± 0.09% | 82 ± 0.07% | 87 ± 0.04% | 95 ± 0.01% | 98 ± 0.08% |  |  | 
CCc1cc(OC)ccc1-c1ccc(CC(NC(=O)[C@H](CC(=O)O)NC(=O)[C@H](CO)NC(=O)[C@@H](NC(=O)C(C)(Cc2ccccc2F)NC(=O)[C@@H](NC(=O)CNC(=O)[C@H](CC(C(F)(F)F)C(F)(F)F)NC(=O)C(C)(C)NC(=O)[C@@H](N)Cc2c[nH]cn2)[C@@H](C)O)[C@H](C)O)C(=O)NC(CCCc2ccccc2F)C(N)=O)cc1 (single isomer, unassigned) [compound 224] | 00% | > 24 h | 00% | > 24 h | 00% | > 24 h | 00% | > 24 h | 26% |  | 99 ± 0.06% | 99 ± 0.06% | 99 ± 0.08% | 99 ± 0.10% | 99 ± 0.12% | (5) h |  | 
CCc1cc(OC)ccc1-c1ccc(CC(CNC(CCCc2ccccc2F)C(N)=O)NC[C@H](CC(=O)O)NC(=O)[C@H](CO)NC(=O)[C@@H](NC(=O)C(C)(Cc2ccccc2F)NC(=O)[C@@H](NC(=O)CNC(=O)[C@H](CCC(N)=O)NC(=O)C(C)(C)NC(=O)[C@@H](N)Cc2c[nH]cn2)[C@H](C)O)[C@H](C)O)cc1 (single isomer, unassigned) [compound 203] | 00% | > 24 h | 00% | > 24 h | 00% | > 24 h | 00% | > 24 h | 31% |  | 86 ± 0.11% | 99 ± 0.09% | 99 ± 0.06% | 99 ± 0.14% | 99 ± 0.19% | (5) h |  | 
CCc1cc(OC)ccc1-c1ccc(CC(NC(=O)[C@H](CC(=O)O)NC(=O)[C@H](CO)NC(=O)[C@@H](NC(=O)[C@H](Cc2ccccc2)NC(=O)[C@@H](NC(=O)CNC(=O)[C@H](CCC(N)=O)NC(=O)[C@H](C)NC(=O)[C@@H](N)Cc2c[nH]cn2)[C@@H](C)O)[C@@H](C)O)C(=O)NC(CCCc2ccc(Cl)cc2C)C(N)=O)cc1 (single isomer, unassigned) [compound 16] | 71% | 8 h | 14% |  | 70% | 9 h | 40% |  | 78% | 1 h | 99 ± 0.11% | 99 ± 0.13% | 99 ± 0.16% | 99 ± 0.06% | 99 ± 0.10% |  | (8) h | (6) h
CCc1cc(OC)ccc1-c1ccc(CC(NC(=O)[C@H](CC(=O)O)NC(=O)[C@H](CO)NC(=O)[C@@H](NC(=O)[C@H](Cc2ccccc2)NC(=O)[C@@H](NC(=O)CNC(=O)[C@H](CCC(N)=O)NC(=O)C(C)(C)NC(=O)[C@@H](N)Cc2c[nH]cn2)[C@@H](C)O)[C@@H](C)O)C(=O)NC(CCCc2ccc(OC)cc2Cl)C(N)=O)cc1 (single isomer, unassigned) [compound 68] | 75% | 8 h | 12% |  | 74% | 9 h | 46% |  | 83% | 1 h | 39 ± 0.11% | 80 ± 0.09% | 88 ± 0.06% | 96 ± 0.14% | 99 ± 0.19% |  | (8) h | (6) h
